Measurements reported in paper PMC6522510 (Nature Communications, 2019).

Key:
Parameters in all cases: species or system AML cell lines (8); Primary HTS, single concentration about 10 uM, Cell Titer Glo viability; log10 luminescence, per cent inhibition relative to cycloheximide control
Conditions in all cases: 72 h, relative to cycloheximide control, log10 luminescence; inhibitor
[1] = tested on: CMK
[2] = tested on: ML-2
[3] = tested on: CHRF288-11
[4] = tested on: MOLM-13
[5] = tested on: U937
[6] = tested on: CMS
[7] = tested on: MV4-11
[8] = tested on: M07e

Row | Structure (SMILES) | CMK %inh [1] [%] | ML-2 %inh [2] [%] | CHRF288-11 %inh [3] [%] | MOLM-13 %inh [4] [%] | U937 %inh [5] [%] | CMS %inh [6] [%] | MV4-11 %inh [7] [%] | M07e %inh [8] [%]
1 | CC(C)(O)Cn1c(=O)c(Oc2ccc(F)cc2F)cc2cnc(NC3CCOCC3)nc21 [SJ000581116-1] | 6.636 | 0.2616 | -0.4946 | 1.601 | 1.398 | -1.939 | 2.584 | 10.58
2 | Cn1c(-c2ccncc2)c(-c2ccc(F)cc2)c2ncccc21 [SJ000581117-1] | 3.59 | -0.3566 | 26.1 | 0.427 | 0.6927 | 0.8281 | 3.37 | 6.194
3 | CS(=O)(=O)CCc1cccc(C(=O)c2cnn(-c3ccc(F)cc3)c2N)c1 [SJ000581118-1] | 3.205 | 0.2726 | -6.13 | 3.918 | 3.157 | 3.108 | 2.402 | 5.628
4 | Cn1cc(C2=C(c3ccccc3[N+](=O)[O-])C(=O)NC2=O)c2ccccc21 [SJ000581119-1] | 89.69 | 6.35 | 24.65 | 15.35 | 6.728 | 101.9 | 44.46 | 28.37
5 | CCOc1ccccc1CCN=C1NC(=O)/C(=C/c2ccc3ncccc3c2)S1 [SJ000581120-1] | 13.66 | 18.56 | -1.679 | 1.703 | 6.277 | 5.975 | 0.5335 | 13.3
6 | Cn1c(=O)c(Oc2ccc(F)cc2F)cc2cnc(N[C@H]3CCOC3)nc21 [SJ000581121-1] | 3.547 | 0.08921 | -0.8909 | 1.492 | 1.362 | 4.412 | 2.632 | 5.749
7 | Nc1c(C(=O)c2ccccc2)cnn1-c1ccc(F)cc1 [SJ000581122-1] | 1.79 | 1.652 | -5.198 | 2.618 | -0.682 | -0.3703 | -1.368 | 10.33
8 | N#Cc1cccc(C(=O)c2cnn(-c3ccc(F)cc3)c2N)c1 [SJ000581124-1] | 1.804 | 1.377 | -6.686 | 0.9707 | 2.317 | 0.5963 | -1.446 | 5.547
9 | Cn1cc(C2=C(c3cn(CCN)c4ccccc34)C(=O)NC2=O)c2ccccc21 [SJ000581125-1] | 4.026 | 0.3075 | -0.3568 | 2.432 | -0.6181 | 4.695 | 10.77 | 2.044
10 | CC(=O)N[C@@H](Cc1ccc(OP(=O)(O)O)cc1)C(=O)N[C@H]1CCC(=O)N2CCC[C@@H](C(=O)NCc3cccc4ccccc34)N2C1=O [SJ000581126-1] | 0.6517 | -1.495 | 5.32 | 1.087 | 1.351 | 3.071 | 0.5498 | 3.709
11 | O=C1NC(=NCCCc2ccccc2)S/C1=C\c1ccc2ncccc2c1 [SJ000581127-1] | 8.234 | 2.496 | -2.357 | 42.49 | 2.066 | 4.391 | 18.37 | 6.993
